Source: patent US9504676B2, “Molecules inhibiting a metabolic pathway involving the Syk protein tyrosine kinase and method for identifying said molecules” (CENTRE NATIONAL DE LA RECHERCHE SCIENTIFIQUE, priority 2008, dated 2016)

Assays:
BMMC cells = test: C-13 toxicity test on BMMC cells (Annexin-V and Propidium Iodide); assay type: cell-based; details: mouse
Description: FIG. 10. Toxicity test of C-13 on BMMC cells. The BMMC cells were incubated at 37° C. in the presence of 2.5 μM or 5 μM of C-13, 0.25% DMF or Staurosporine. The percentages of live BMMC cells after 3 hours and after 5 days were detected by means of double Annexin-V and Propidium Iodide labelling. The viability of BMMC cells incubated in the presence of 2.5 μM or 5 μM of C-13 or 0.25% DMF was not affected to noteworthy degree after 3 hours (78%, 74% and 79% respectively) or five days (62, 56 and 57%, respectively). On the other hand, the viability of BMMC cells treated under the same conditions with Staurosporine was reduced to a level of 16% after only 3 hours.
• 1) Chemical products and antibodies. A chemical bank of 3000 molecules (a varied subset) was acquired from ChemBridge, Inc. (San Diego, Calif.). Stocks of solutions of small molecules were prepared at a rate of 10 mM in DMSO (dimethylsulphoxide), except for C-13 (methyl 2-{5-[(3-benzyl-4-oxo-2-thioxo-1,3-thiazolidin-5-ylidene)methyl]-2-furyl}benzoate, ChemBridge ID No. 6197026) prepared in DMF (dimethylformamide). Unless specified otherwise, all the reagents were supplied by Sigma. Dinitrophenyl (DNP) hapten was acquired from Calbiochem. Sepharose GammaBind G and all the secondary antibodies were supplied by GE Health Amersham Biosciences. The anti-Syk, anti-Lyn, anti-Btk, anti-PLC-γ1, anti-PLC-γ2, anti-LAT, anti-SLP-76, anti-p38, anti-JNK, anti-Vav, anti-Akt1 and 9E10 antibodies conjugated with HRP were acquired from Santa Cruz Biotechnology. The anti-phospho-p44/42 MAP Kinase, anti-p44/42 MAP Kinase, anti-phospho-p38, anti-phospho-JNK, anti-phospho-Akt1 antibodies were acquired from Cell Signaling. The anti-phospho-LAT and anti-phospho-PLC-γ1 antibodies were supplied by Biosource and the anti-phospho-SLP-76 antibodies by BD Pharmingen. The 4G10 anti-phosphotyrosine monoclonal antibody was acquired from Upstate Biotechnology. • 2) ADA method: ELISA type high-speed molecule screening test, based on antibody displacement (WO 2005106481). The recombinant fusion protein GST:Syk 6-242^8 comprising the residues 6 to 242 of murine Syk tyrosine kinase protein illustrated in FIG. 8B (SEQ ID No. 4) was immobilised on an ELISA plate at a final concentration of 10 μg ml^−1. For the screening of the chemical molecule bank, the small molecules, diluted in PBS at a final concentration of 10 μM were added to the wells for one hour at ambient temperature, before adding the fragment scFv G4G11 at a final concentration of 100 nM for an additional hour. The binding of G4G11 with Syk was assessed by adding the 9E10 monoclonal antibody conjugated with HRP detecting the amino acid sequence EQKLISEEDLN of human c-myc protein located at the C-terminal end of the scFv fragment. To generate Syk mutants, targeted mutagenesis was used on GST:Syk 6-242 protein and the binding of G4G11 with the mutants was assessed in the presence of 5 μM of C-13. • 3) Cells, culture conditions and functional tests. Anti-DNP 2682-I mouse monoclonal antibody was used as the culture supernatant of hybridomas containing 1 μg/ml of IgE. Femoral bone marrow cells were sampled and cultured in Opti-MEM medium (Gibco) supplemented with 10% foetal calf serum and 4% X63 transfectant supernatant secreting murine IL-3. RBL-2H3 (ATCC) leukaemic rat basophil cells were maintained in a single-layer culture in RPMI 1640 medium supplemented with 10% foetal calf serum (Gibco). […]

SLP-76 = test: Phosphorylation of SLP-76 (phospho-specific antibodies); assay type: cell-based, rat; details: RBL-2H3 cells

COC(=O)c1ccccc1-c1ccc(/C=C2/SC(=S)N(Cc3ccccc3)C2=O)o1 [Molecule C-13, methyl 2-{5-[(3-benzyl-4-oxo-2-thioxo-1,3-thiazolidin-5-ylidene)methyl]-2-furyl}benzoate]
percentage of live BMMC cells (BMMC cells; 3 h, 2.5 μM): 78% | percentage of live BMMC cells (BMMC cells; 3 h, 5 μM): 74% | percentage of live BMMC cells (BMMC cells; 5 days, 2.5 μM): 62% | percentage of live BMMC cells (BMMC cells; 5 days, 5 μM): 56% | phosphorylation of SLP-76 (SLP-76): inhibits
